# Source: patent US20040241840A1, “Compositions for therapy” (priority 2001, published 2004)
# Counter-ions that a name gives are not always drawn. Marks after values point to notes of the source that are not given here.
# What was measured:
# [1] = target: T1, low affinity glucocorticoid binding site (LAGS) (Rattus norvegicus, UniProt P70580); assay: competition analysis with 5×10^−8M [3H]dexamethasone for binding to the LAGS; settings: for IC50: read-out: IC50% (concentration of unlabelled competitor reducing specific binding of radiolabelled dexamethasone to the LAGS to 50% of control); for competition with dexamethasone for binding to the LAGS (in words): 4° for 8 hours, FIG. 2
# Protocol: Washed liver microsomes (100,000 g pellet) were prepared after canulating the portal vein of a rat and perfusing blood from the liver using ice-cooled hanks buffer.
# Data were analysed using standard methods.
# Potential competitors were added from ethanol stocks such that the final ethanol concentration in the assay was less than 1% (v/v). Specific binding was determined using conventional methods as described above.
# Free ligand was removed using dextran-charcoal. […] Competitors were added from ethanol stocks such that final ethanol concentration in the assay was less than 1% (v/v).
# rat and human HSCs = assay: proliferation of rat and human HSCs, results in words; assay type: cell-based
# Protocol: (§1) Rat hepatic stellate cells (HSCs) were isolated by pronase/collagenase perfusion and purified by isopycnic density centrifugation in Opti-prep™ (Nycomed) and elutriation (Wright et al (2001) Gastroenterology 121(3): 685-698). Human HSCs were isolated from discarded resected liver via a similar protocol. The use of human liver tissue for scientific investigation was approved by the UK South and West Local Research Ethics Commitee and was subject to patient consent.
# (§2) HSCs were cultured in Dulbecco's modified Eagle Medium (DMEM) containing 4.5 g/l of glucose, supplemented with 16% (v/v) fetal calf serum, 80 u/ml penicillin, 80 μg/ml streptomycin and 32 μg/ml gentamycin. Cells were seeded onto plastic culture dishes and incubated at 37° C. in an humidified incubator gassed with 5% CO2 in air. The culture medium was renewed after the first day and thereafter every 3-4 days.
# (§3) However, when rat and human HSCs were treated with ligands of LAGS, the proliferation and activation of the HSCs was inhibited. In addition, T6 cells (rat hepatic stellate cell line) were seeded at low density in 6 well plates in DMEM supplemented with 4% (v/v) FCS. The T6 cells were re-treated at 24 hours and counted at 48 hours. Human hepatic stellate cells were treated at days 2, 5, 7, 9 and 12 of culture and counted on day 15 of culture. Control cells were treated identically with 0.1% (v/v) ethanol used to prepare steroid stocks.
# [2] = test system: T6 cells (rat hepatic stellate cell line); assay: proliferation of T6 cells (cell count); assay type: cell-based; settings: re-treated at 24 hours, counted at 48 hours
# Protocol: as §3
# [3] = test system: rats administered CCl4 (liver fibrosis); assay: CCl4 liver fibrosis rat in vivo model; settings: PCN once weekly during CCl4 twice weekly for 6 weeks
# Protocol: Rats were administered CCl4 twice weekly for 6 weeks to cause liver fibrosis and administered PCN once weekly during CCl4 treatment.
# [4] = target: T1, low affinity glucocorticoid binding site (LAGS); assay: specific binding of 10 nM [3H]dexamethasone in rat liver microsomes; settings: read-out: % specific binding compared to dexamethasone alone, microsomes
# glucocorticoid receptor = target: T2, glucocorticoid receptor (Rattus norvegicus, UniProt P06536); assay: specific binding of 10 nM [3H]dexamethasone in rat liver cytosol
# T2 construct: from tissue; host or cells: rat liver cytosol
# T2 sequence (P06536 1-795): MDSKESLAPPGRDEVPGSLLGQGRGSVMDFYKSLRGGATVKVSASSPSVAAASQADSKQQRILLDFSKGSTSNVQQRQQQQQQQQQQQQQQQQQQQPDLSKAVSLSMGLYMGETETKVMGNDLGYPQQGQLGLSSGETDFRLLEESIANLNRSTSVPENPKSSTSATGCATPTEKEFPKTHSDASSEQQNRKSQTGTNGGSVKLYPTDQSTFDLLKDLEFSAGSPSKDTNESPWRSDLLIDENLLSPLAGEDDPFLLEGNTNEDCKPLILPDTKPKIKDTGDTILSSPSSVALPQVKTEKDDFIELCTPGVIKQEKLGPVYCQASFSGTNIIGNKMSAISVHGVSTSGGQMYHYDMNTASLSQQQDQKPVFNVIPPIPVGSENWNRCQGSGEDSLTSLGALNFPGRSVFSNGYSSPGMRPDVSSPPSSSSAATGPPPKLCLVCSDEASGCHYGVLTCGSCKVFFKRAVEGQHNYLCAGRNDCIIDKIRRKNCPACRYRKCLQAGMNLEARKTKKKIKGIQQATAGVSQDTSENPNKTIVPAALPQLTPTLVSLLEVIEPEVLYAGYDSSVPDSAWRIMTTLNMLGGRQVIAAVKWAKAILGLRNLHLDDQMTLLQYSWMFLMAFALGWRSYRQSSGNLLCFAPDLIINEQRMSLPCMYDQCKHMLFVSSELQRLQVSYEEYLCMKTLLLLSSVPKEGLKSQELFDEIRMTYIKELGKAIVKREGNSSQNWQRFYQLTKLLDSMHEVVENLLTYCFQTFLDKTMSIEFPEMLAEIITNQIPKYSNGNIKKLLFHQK
# human HSCs = assay: proliferation of human hepatic stellate cells (cell count); assay type: cell-based; settings: treated at days 2, 5, 7, 9 and 12, counted on day 15
# Protocol: as §1, §2
# as §3, with “Control cells were treated identically with 0.1% (v/v) ethanol used to prepare steroid stocks.” left out
# [5] = test system: α-smooth muscle actin expression in human HSCs; assay: α-smooth muscle actin expression in cultured human hepatic stellate cells (Western blotting); assay type: cell-based; settings: human HSCs cultured for 15 days, FIG. 3
# Protocol: The effect of LAGS ligands on activation to the pro-fibrogenic phenotype was investigated by measuring the effect of LAGS ligands on expression of α-smooth muscle actin in cultured human hepatic stellate cells. […] Whole cell extracts (10 μg protein/lane) were probed for alpha-smooth muscle actin and GFAP (glial fibrillary acidic protein—loading control) protein expression by Western blotting. Scanned blots were quantitated using Phoretix software (Nonlinear Dynamics, Newcastle, UK).
# [6] = target: T1, low affinity glucocorticoid binding site (LAGS); settings: 1 μM; Wright & Paine (1995); cited from earlier work
# T1 sequence (P70580 2-195): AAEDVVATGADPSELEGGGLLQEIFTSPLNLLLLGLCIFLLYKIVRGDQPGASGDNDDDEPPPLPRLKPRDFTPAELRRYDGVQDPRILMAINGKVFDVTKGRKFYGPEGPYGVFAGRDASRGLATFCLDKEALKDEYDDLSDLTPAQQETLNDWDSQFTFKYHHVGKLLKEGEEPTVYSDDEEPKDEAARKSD
molecule,measurement,setting,value
CC(=NOCC(=O)O)[C@H]1CC[C@H]2[C@@H]3CCC4=C[C@@H](O)CC[C@]4(C)[C@H]3CC[C@]12C [4 pregnene-3β-ol-20-one carboxymethyloxime],IC50,[1],> 100 µM
CC(=O)[C@H]1CC[C@H]2[C@@H]3C[C@@H](O)C4=CC(=O)CC[C@]4(C)[C@H]3CC[C@]12C [6α-hydroxyprogesterone],IC50,[1],5 µM
CC(=O)O[C@@H]1C[C@H]2[C@@H]3CC[C@H](C(C)=O)[C@@]3(C)CC[C@@H]2[C@@]2(C)CCC(=O)C=C12 [6β-progesterone acetate],IC50,[1],0.5 µM
CC(=O)[C@H]1CC[C@H]2[C@@H]3CCC4=CC(=O)CC[C@]4(C)[C@H]3[C@H](O)C[C@]12C [11α-hydroxyprogesterone],IC50,[1],0.1 µM
CC(=O)O[C@@H]1C[C@]2(C)[C@@H](C(C)=O)CC[C@H]2[C@@H]2CCC3=CC(=O)CC[C@]3(C)[C@H]21 [11α-progesterone acetate],IC50,[1],0.1 µM
CC(=O)[C@H]1CC[C@H]2[C@@H]3CCC4=CC(=O)CC[C@]4(C)[C@H]3[C@@H](OS(=O)(=O)c3ccc(C)cc3)C[C@]12C [11β-progesterone tosylate],IC50,[1],10 µM
"CC1CC2C3CCC4=CC(=O)C=CC4(C)C3(F)C(O)CC2(C)C1(O)C(=O)O (stereo not drawn) [17β-carboxylic acid derivative, 9α-fluoro 16α-methyl-11β,17α-dihydroxy-1,4-pregn-3-one 17-carboxylic acid]",IC50,[1],100 µM
"CC(=O)[C@H]1[C@H](C#N)C[C@H]2[C@@H]3CC=C4C[C@@H](O)CC[C@]4(C)[C@H]3CC[C@@]21C [PCN, pregnenolone 16-alpha carbonitrile]",competition with dexamethasone for binding to the LAGS (in words),[1],compete with dexamethasone for binding to the LAGS
same,effect on cell proliferation (in words),rat and human HSCs,inhibited in their ability to proliferate
same,"% proliferation versus control (100%), T6 cells",[2]; 10 μM,55 +/− 17%
same,Sirius red staining (collagens) in liver,[3],significantly reduced
same,"blinded histological scoring of H&E stained liver sections, CCl4 versus CCl4/PCN treated rats",[3],no significant difference
same,"liver serum (AST) enzyme levels, CCl4 versus CCl4/PCN treated rats",[3],no significant difference
same,number of cells and extent of α-smooth muscle actin staining in livers,[3],significantly reduced
CC#C[C@]1(O)CC[C@H]2[C@@H]3CCC4=CC(=O)CCC4=C3[C@@H](c3ccc(N(C)C)cc3)C[C@@]21C [RU486],activity at 10 µM,[4],123%
same,"% specific binding compared to dexamethasone alone, cytosol","glucocorticoid receptor; 10 μM RU486, mean and SD of 3 samples",0* %
"CO[C@H]1C[C@H](O[C@H]2[C@H](C)[C@@H](O[C@@H]3O[C@H](C)C[C@H](N(C)C)[C@H]3OC(C)=O)[C@@H](C)C[C@@]3(CO3)C(=O)[C@H](C)[C@@H](OC(C)=O)[C@@H](C)[C@@H](C)OC(=O)[C@@H]2C)O[C@@H](C)[C@@H]1OC(C)=O [TAO, troleandomycin]","% proliferation versus control (100%), T6 cells",[2]; 100 μM,106 +/− 2.8%
Clc1ccccc1C(c1ccccc1)(c1ccccc1)n1ccnc1 [clotrimazole],competition with dexamethasone for binding to the LAGS (in words),[1],compete with dexamethasone for binding to the LAGS
same,"% proliferation versus control (100%), human HSCs",human HSCs; 5 μM,25 +/− 13%
same,effect on cell proliferation (in words),rat and human HSCs,inhibited in their ability to proliferate
same,"% proliferation versus control (100%), T6 cells",[2]; 5 μM,18 +/− 4.7%
same,expression of α-smooth muscle actin (in words),[5]; 1 μM clotrimazole,inhibited expression of α-smooth muscle actin
C[C@@H]1C[C@H]2[C@@H]3CCC4=CC(=O)C=C[C@]4(C)[C@@]3(F)[C@@H](O)C[C@]2(C)[C@@]1(O)C(=O)COS(C)(=O)=O [dexamethasone mesylate],IC50,[1],10 µM
C[C@@H]1C[C@H]2[C@@H]3CCC4=CC(=O)C=C[C@]4(C)[C@@]3(F)[C@@H](O)C[C@]2(C)[C@@]1(O)C(=O)CO [dexamethasone],effect on cell proliferation (in words),rat and human HSCs,no effect
CC(C)(C(=O)c1cccnc1)c1cccnc1 [metyrapone],competition with dexamethasone for binding to the LAGS (in words),[1],compete with dexamethasone for binding to the LAGS
same,"% proliferation versus control (100%), human HSCs",human HSCs; 500 μM,76 +/− 18%
same,effect on cell proliferation (in words),rat and human HSCs,inhibited in their ability to proliferate
same,"% proliferation versus control (100%), T6 cells",[2]; 500 μM,52 +/− 5.7%
same,"% specific binding compared to dexamethasone alone, cytosol","glucocorticoid receptor; metyrapone, concentration not given, mean and SD of 3 samples",105 +/− 4.0%
same,expression of α-smooth muscle actin (in words),[5]; 200 μM metyrapone,inhibited expression of α-smooth muscle actin
CCC1(c2ccccc2)C(=O)NC(=O)NC1=O [phenobarbitone],competition with dexamethasone for binding to the LAGS (in words),[1],compete with dexamethasone for binding to the LAGS
CC(=O)C1CCC2C3CCC4=CC(=O)CCC4(C)C3CCC12C (stereo not shown) [progesterone],competition with dexamethasone for binding to the LAGS (in words),[1],compete with dexamethasone for binding to the LAGS
same,effect on cell proliferation (in words),rat and human HSCs,no effect
betamethasonenone,IC50,[1],5 µM
biotinylated dexamethasone,IC50,[1],> 100 µM
oestradiol,expression of α-smooth muscle actin (in words),[5]; 1 μM oestradiol,inhibited expression of α-smooth muscle actin
same,binding to the LAGS (in words),[6],a ligand for the LAGS at this concentration
